Experimental data from US20110224221A1, “HEMATOPOIETIC PROTECTION AGAINST IONIZING RADIATION USING SELECTIVE CYCLIN-DEPENDENT KINASE 4/6 INHIBITORS” (priority 2008, published 2011).
“Also recorded” adds a separate entry of the source.

Legend:
[1] = system: human melanoma cell line WM2664; experiment: Cell cycle analysis (BrdU incorporation in vitro), WM2664; assay type: cell-based; settings: for cell cycle effect: WM2664, 24 hours exposure
Description: (§1) FIG. 3A is a set of graphs showing the dose-response curves for cycle analysis in both cyclin-dependent kinase 4/6 (CKD4/6)-dependent cells (human telomerized human diploid fibroblasts (tHDFs, left-hand column of graphs) and a CDK4/6-dependent human melanoma cell line (WM2664, middle column of graphs)) and in CDK4/6-independent cells (a human retinoblastoma tumor suppressor protein (RB)-null melanoma cell line (A2058), right-hand column of graphs). […] The percentage of cells in the G1 phase is indicated by the data shown in the open triangles, while the percentage of cells in the S phase is shown by the data in the shaded circles and the percentage of cells in the G2/M phase is indicated by the data in the double “x”s.
FIG. 8 is a set of representative cell cycle dot-plots for cyclin-dependent kinase 4/6 (CDK4/6)-dependent (WM2664) human melanoma cells (top two rows) and CDK4/6-independent (A2058) human melanoma cells (bottom two rows) that had been treated with dimethyl sulfoxide (DMSO) as a control or with 300 nM, 1 μM, 3 μM, 10 μM or 30 μM of trans-4-[[6-ethylamino)-2-[[2-phenylmethyl)-1H-indol-5-yl]amino]-4-pyrimidinyl]amino]]-cyclohexanol (CINK4).
(§2) Cell Lines: KPTR1, KPTR4. and KPTR5 were derived from tumor-bearing TyrRAS+Ink4a/Arf−/− by standard procedures and cultured in RPMI+10% fetal bovine serum (FBS). Telomerized HDFs (tHDFs, also known as HS68) were cultured in DMEM+10% FBS with penicillin and streptomycin. The same conditions were used for A2058 and WM2664, human melanoma cell lines with known RB-pathway mutations: A2058 is RB-null, whereas WM2664 lacks p16^INK4a/Arf. See Shields, et al., Cancer Res., 67, 1502-1512 (2007). Cells were irradiated for indicated doses in a Rad Source Inc. (Alpharetta, Ga., United States of America) RS-2000 Biological Irradiator at 160 kV, 25.0 mA, at distance setting 1, with a dose rate of 103 rads/min.
(§3) BrdU Incorporation in vitro: Cells were plated and allowed to adhere overnight or at least 6 hours prior to adding CDK4/6 inhibitor at the indicated concentrations. Cells were grown for 24 hours in the presence of CDK4/6 inhibitor. 15 minutes prior to cell harvesting, 5-Bromo-2-deoxyuridine (BrdU) was added to the media at a final concentration of 10 μM. The cells were then washed, trypsinized, pelleted, fixed, permeabilized, stained, and measured on a flow cytometer as described in manufacturer directions for the BrdU Kit (BD Biosciences Pharmingen, San Diego, Calif., United States of America).
(§4) The proliferation of seven RB-deficient human small cell lung cancer lines was also resistant to the selective CDK4/6 inhibitors.

[2] = system: telomerized human diploid fibroblasts (tHDF); experiment: Cell cycle analysis (BrdU incorporation in vitro), tHDF; assay type: cell-based; settings: 24 hours exposure
Description: as §1, §2, §3, §4

[3] = system: RB-null melanoma line A2058; experiment: Cell cycle analysis (BrdU incorporation in vitro), A2058; assay type: cell-based, human; settings: A2058, concentrations between 300 nM and 30 μM
Description: FIG. 3A is a set of graphs showing the dose-response curves for cycle analysis in both cyclin-dependent kinase 4/6 (CKD4/6)-dependent cells (human telomerized human diploid fibroblasts (tHDFs, left-hand column of graphs) and a CDK4/6-dependent human melanoma cell line (WM2664, middle column of graphs)) and in CDK4/6-independent cells (a human retinoblastoma tumor suppressor protein (RB)-null melanoma cell line (A2058), right-hand column of graphs). […] The percentage of cells in the G1 phase is indicated by the data shown in the open triangles, while the percentage of cells in the S phase is shown by the data in the shaded circles and the percentage of cells in the G2/M phase is indicated by the data in the double “x”s. […]
BrdU Incorporation in vitro: Cells were plated and allowed to adhere overnight or at least 6 hours prior to adding CDK4/6 inhibitor at the indicated concentrations. […] The cells were then washed, trypsinized, pelleted, fixed, permeabilized, stained, and measured on a flow cytometer as described in manufacturer directions for the BrdU Kit (BD Biosciences Pharmingen, San Diego, Calif., United States of America). […]

tHDF (HS68) cells = experiment: Clonogenic assay after IR, tHDF (HS68); assay type: cell-based, human; settings: PD0332991 100 nM, 2BrIC 2 μM, CINK4 6 μM, IR 0-9 Gy
Experimental: FIG. 6A is a set of micrograph images of crystal violet stained cell cultures of cyclin-dependent kinase 4/6 (CDK4/6)-dependent cells (HS68) plated at different cell/well ratios and treated with either dimethyl sulfoxide (DMSO) as a negative control or with the selective CDK4/6 inhibitor 2-bromo-12,13-dihydro-5H-indolo[2,3-a]pyrrolo[3,4]carbazole-5,6-dione (2BrIC) at 2 μM for 24 hours prior to exposure to ionizing radiation at 0, 1.5, 3, 6, or 9 gray (Gy), as indicated.
Data plotted is the area/cell ratio of PD0332991 treated cells to dimethyl sulfoxide (DMSO) treated cells. Error bars show standard error of the mean.
FIG. 9A is a set of micrograph images of cell cultures of cyclin-dependent kinase 4/6 (CDK4/6)-dependent cells (HS68) plated at different cell/well ratios and pretreated with either dimethyl sulfoxide (DMSO) as a control or with the nonselective CDK4/6 inhibitor trans-4-[[6-ethylamino)-2-[[1-phenylmethyl)-1H-indol-5-yl]amino]-4-pyrimidinyl]amino]]-cyclohexanol (CINK4) at 6 μM for 24 hours prior to exposure to ionizing radiation at 0, 1.5, 3, 6, or 9 gray (Gy), as indicated. The plates were stained with crystal violet to visualize cell colonies.
Clonogenic Assay: The clonogenic assay was performed as previously described (see Franken et al., Nature protocols, 1, 2315-1319 (2006)) with cells plated in a six-well plate at least 6 hours prior to treatment with CDK inhibitor for 24 hours, with 6 Gy IR occurring 12 hours after initiation of CDK inhibitor exposure. Cells were grown for 16 days, washed, fixed, and stained with crystal violet. Plates were then imaged using an Odyssey infrared scanner (Li-Cor Biosciences, Lincoln, Nebr., United States of America) and quantified using the accompanying software.

COc1ccc(F)c(F)c1C(=O)c1cnc(NC2CCN(S(C)(=O)=O)CC2)nc1N [Compound 7]
cell cycle effect [1]: G2/M block, intra-S arrest, or cell death (sub-GO)
cell cycle effect [2]: G2/M block, intra-S arrest, or cell death (sub-GO)

CC[C@H](CO)Nc1nc(NCc2ccccc2)c2ncn(C(C)C)c2n1 [roscovitine, Roscovitine]
cell cycle effect [1]: G2/M block, intra-S arrest, or cell death (sub-GO)
cell cycle effect [2]: G2/M block, intra-S arrest, or cell death (sub-GO)

CCNc1cc(N[C@H]2CC[C@H](O)CC2)nc(Nc2ccc3c(ccn3Cc3ccccc3)c2)n1 [CINK4]
substantially pure G1 arrest [3]: did not induce a substantially pure (i.e. “clean”) G1 arrest
substantially pure G1 arrest ([1]; WM2664, concentrations between 300 nM and 30 μM): did not induce a substantially pure (i.e. “clean”) G1 arrest
clonogenic cell survival after IR (area/cell ratio relative to DMSO) (tHDF (HS68) cells): failed to enhance cell survival; also recorded: lack of enhanced cell survival

CN1CC[C@H](c2c(O)cc(O)c3c(=O)cc(-c4ccccc4Cl)oc23)[C@H](O)C1 [flavopiridol]
cell cycle effect [1]: G2/M block, intra-S arrest, or cell death (sub-GO)
cell cycle effect [2]: G2/M block, intra-S arrest, or cell death (sub-GO)
